# Legend:
# [1] = molecular target: Human RET protein (RET kinase) (Homo sapiens (Human), UniProt P07949); test: RET kinase activity, HTRF KinEASE-TK TR-FRET assay; format: biochemical; conditions: inhibition of RET kinase; 9 concentrations 3200 nM~0.008 nM, 2% DMSO
# Experimental: Test Example 1. Determination of the Activity of the Compound of the Present Disclosure on RET Kinase
# (§1) In this method, HTRF®KinEASE-TK Tyrosine Kinase Kit (Cat. No. 62TK0PEB) of Cisbio was used to determine the degree of phosphorylation of biotinylated polypeptide substrates by time-resolved fluorescence energy transfer (TR-FRET). Human RET protein (RET kinase) was purchased from Carna bioscience (Japan, Cat. No. 08-159-5 μg).
# (§2) The experimental steps are as follows: • (1) The test compound (the compound of the present disclosure, and compound 164 in WO2018017983A1 as a control) was dissolved in 100% DMSO to a final concentration of 10 mM. • (2) 4 μL of the test compound solution prepared in step (1) was dissolved with 46 μL of 100% DMSO, and the solution obtained in this step was numbered as No. 2. • (3) No. 2 solution was subjected to subsequent gradient dilution with a dilution factor of 5 times (i.e. 20 μL of 100% DMSO was added to 5 μL of the compound), a total of 9 gradients, numbered 3 to 11.
# Note: No. 2 was not used for the dilution in step (4).
# (§3) (Unless otherwise specified, the following steps need to be carried out on ice) • (4) The buffer provided in the kit (Cisbio, Cat. No. 62TK0PEB) was used to continuously serially dilute the solutions numbered from 3 to 11 with a dilution factor of 20 times (that is, adding 19 μL of buffer to the solutions numbered from 3 to 11). At this time, the final concentration range of the test compound in the system No. 3 to 11 was 3200 nM˜0.008 nM (9 gradients), and the final concentration of DMSO was 2%. • (5) 9 compound solutions of gradient concentration in step (4) were added into a 384-well plate in order according to their concentration at 4 μL per well, and two duplicate wells were set. • (6) 2 μL of human RET protein was added to each well and incubated on ice for 10 minutes. • (7) 2 μL of ATP (Sigma #A7699) and 2 μL of biotinylated polypeptide substrate (Cisbio, Cat. No. 62TK0PEB) were added to each well to start the phosphorylation reaction, and incubated at 37° C. for half an hour. • (8) 5 μL of anti-phosphotyrosine antibody coupled with europium compound (provided in the kit, Cat. No. 62TK0PEB) and 5 μL of streptavidin coupled with modified allophycocyanin XL665 (Cisbio, Cat. No. 62TK0PEB) were added to each well. • (9) The plate was continued to incubate for 1 hour at room temperature. After the incubation, the TF-FRET mode of the microplate reader (BMG Labtech, model: FLUOStar Omega) was adopted to measure the fluorescence intensity at an excitation wavelength of 304 nm and emission wavelengths of 615 nm and […] in each well. The ratio would be calculated automatically. • (10) By comparing the fluorescence intensity ratio in the control group, the inhibition rate of the compound at each concentration was calculated, and GraphPad Prism 5 was used to perform curve fitting with logarithmic concentration-inhibition rate to calculate the IC50 value of the compound.
# KDR kinase = KDR kinase (Homo sapiens (Human), UniProt P35968); test: KDR control kinase activity, HTRF KinEASE-TK TR-FRET assay; format: biochemical; conditions: inhibition of KDR kinase; 16000 nM~0.04 nM, 2% DMSO
# Experimental: as §1, §2, §3
# The selected control kinase is another receptor tyrosine kinase, KDR, with similar structure to RET kinase, purchased from Carna bioscience (Japan, Cat. No. 08-191-5 μg). The step of gradient dilution was the same as that of RET kinase, and the final concentration range of the test compound in the reaction system was 16000 nM˜0.04 nM (No. 2-10 solutions were used for the gradient dilution in step 4). Other reaction conditions were the same as above, and the final concentration of DMSO was 2%. The calculation method for the IC50 value of KDR kinase inhibition by the test compound was the same as the calculation method for the IC50 value of RET kinase inhibition.
# KDR kinase, sequence (P35968 20-1356): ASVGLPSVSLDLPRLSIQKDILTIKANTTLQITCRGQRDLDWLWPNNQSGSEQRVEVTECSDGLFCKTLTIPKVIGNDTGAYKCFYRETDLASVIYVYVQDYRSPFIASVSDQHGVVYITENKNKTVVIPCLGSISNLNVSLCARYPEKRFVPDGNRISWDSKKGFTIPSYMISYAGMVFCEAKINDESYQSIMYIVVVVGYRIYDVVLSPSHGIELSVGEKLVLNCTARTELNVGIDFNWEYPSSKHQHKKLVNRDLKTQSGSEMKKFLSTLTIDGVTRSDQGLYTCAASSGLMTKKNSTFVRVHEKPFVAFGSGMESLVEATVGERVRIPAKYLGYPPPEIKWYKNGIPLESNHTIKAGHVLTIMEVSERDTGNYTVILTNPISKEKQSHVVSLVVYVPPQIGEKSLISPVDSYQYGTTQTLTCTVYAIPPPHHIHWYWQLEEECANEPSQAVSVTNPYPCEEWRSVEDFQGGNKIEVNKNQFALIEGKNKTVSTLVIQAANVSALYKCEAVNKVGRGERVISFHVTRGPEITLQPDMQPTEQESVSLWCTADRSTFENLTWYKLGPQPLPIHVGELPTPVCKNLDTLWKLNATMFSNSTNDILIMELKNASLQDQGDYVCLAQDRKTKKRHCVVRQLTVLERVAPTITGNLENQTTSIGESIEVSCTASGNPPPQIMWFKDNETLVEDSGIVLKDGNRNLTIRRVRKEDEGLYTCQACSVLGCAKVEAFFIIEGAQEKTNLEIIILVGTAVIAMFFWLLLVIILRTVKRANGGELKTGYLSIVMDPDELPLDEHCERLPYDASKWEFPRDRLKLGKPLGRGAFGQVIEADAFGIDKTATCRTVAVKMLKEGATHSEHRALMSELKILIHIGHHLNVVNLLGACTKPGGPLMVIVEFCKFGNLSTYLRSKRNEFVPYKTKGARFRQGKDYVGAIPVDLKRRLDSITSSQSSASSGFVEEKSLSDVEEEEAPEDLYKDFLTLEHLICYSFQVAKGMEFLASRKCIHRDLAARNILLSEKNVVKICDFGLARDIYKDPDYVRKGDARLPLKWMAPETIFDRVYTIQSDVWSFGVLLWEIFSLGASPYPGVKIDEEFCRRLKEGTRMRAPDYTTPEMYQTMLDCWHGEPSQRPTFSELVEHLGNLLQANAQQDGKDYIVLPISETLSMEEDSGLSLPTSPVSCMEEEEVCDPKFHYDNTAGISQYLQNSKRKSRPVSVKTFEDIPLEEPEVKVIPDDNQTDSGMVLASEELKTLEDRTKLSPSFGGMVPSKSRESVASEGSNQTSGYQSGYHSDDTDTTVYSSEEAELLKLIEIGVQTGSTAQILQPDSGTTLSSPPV
# Human RET protein (RET kinase), sequence (P07949 29-1114): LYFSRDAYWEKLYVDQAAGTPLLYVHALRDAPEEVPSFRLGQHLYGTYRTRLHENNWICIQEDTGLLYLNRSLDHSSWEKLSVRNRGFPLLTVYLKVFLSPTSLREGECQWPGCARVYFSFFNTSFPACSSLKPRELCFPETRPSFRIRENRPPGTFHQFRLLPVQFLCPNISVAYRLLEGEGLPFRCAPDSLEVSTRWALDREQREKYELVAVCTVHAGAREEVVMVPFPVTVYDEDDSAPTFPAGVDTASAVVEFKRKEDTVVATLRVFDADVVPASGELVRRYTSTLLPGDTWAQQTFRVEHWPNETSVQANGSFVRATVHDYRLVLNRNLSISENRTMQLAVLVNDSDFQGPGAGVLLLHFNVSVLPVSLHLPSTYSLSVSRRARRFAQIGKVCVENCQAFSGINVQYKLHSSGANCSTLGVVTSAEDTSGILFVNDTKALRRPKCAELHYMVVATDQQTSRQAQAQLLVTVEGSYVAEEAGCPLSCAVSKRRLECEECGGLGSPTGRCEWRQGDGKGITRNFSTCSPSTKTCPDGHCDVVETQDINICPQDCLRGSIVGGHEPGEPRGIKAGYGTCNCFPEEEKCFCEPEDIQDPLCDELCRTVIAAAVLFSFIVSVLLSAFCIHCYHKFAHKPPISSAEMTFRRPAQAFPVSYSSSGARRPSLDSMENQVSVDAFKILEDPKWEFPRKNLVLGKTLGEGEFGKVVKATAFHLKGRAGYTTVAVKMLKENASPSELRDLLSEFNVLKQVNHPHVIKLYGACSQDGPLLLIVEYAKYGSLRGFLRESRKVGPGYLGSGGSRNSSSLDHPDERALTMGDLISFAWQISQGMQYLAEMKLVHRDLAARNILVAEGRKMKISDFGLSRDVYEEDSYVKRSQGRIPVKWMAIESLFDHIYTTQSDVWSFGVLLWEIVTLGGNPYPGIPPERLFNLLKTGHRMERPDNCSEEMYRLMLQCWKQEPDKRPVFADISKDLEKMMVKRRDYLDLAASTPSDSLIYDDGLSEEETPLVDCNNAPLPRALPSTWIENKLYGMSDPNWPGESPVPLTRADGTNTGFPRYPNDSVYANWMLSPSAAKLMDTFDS
SMILES,IC50 [1],IC50 (KDR kinase)
"Cc1cc(Nc2cc(C)[nH]n2)nc(N2CCC(C(=O)N[C@@H](C)c3ccc(-n4cc(F)cn4)nc3)CC2)c1 [Compound 164, reference compound]",73 nM,2300 nM
"Cc1cc(Nc2cc(C)[nH]n2)nc(N2CCN(C(=O)c3ccc(-n4cc(F)cn4)nc3)CC2)n1 [Compound I-1, (6-(4-fluoro-1H-pyrazol-1-yl)pyridin-3-yl)(4-(4-methyl-6-((5-methyl-1H-pyrazol-3-yl)amino)pyrimidin-2-yl)piperazin-1-yl)methanone]",12.5 nM,1130 nM
"Cc1cc(Nc2cc(C)[nH]n2)nc(N2CCN(C(=O)c3ccc(-n4cc(F)cn4)nc3)[C@@H](C)C2)n1 [Compound I-2, (S)-(6-(4-fluoro-1H-pyrazol-1-yl)pyridin-3-yl)(2-methyl-4-(4-methyl-6-((5-methyl-1H-pyrazol-3-yl)amino)pyrimidin-2-yl)piperazin-1-yl)methanone]",11.8 nM,851 nM
"Cc1cc(Nc2cc(C)[nH]n2)nc(N2CC3CCC(C2)N3C(=O)c2ccc(-n3cc(F)cn3)nc2)n1 [Compound I-4, (6-(4-fluoro-1H-pyrazol-1-yl)pyridin-3-yl)(3-(4-methyl-6-((5-methyl-1H-pyrazol-3-yl)amino)pyrimidin-2-yl)-3,8-diazabicyclo [3.2.1]octane-8-yl) methanone]",1.4 nM,80 nM
"Cc1cc(Nc2nc(N3CC4CCC(C3)N4C(=O)c3ccc(-n4cc(F)cn4)nc3)nc3ccccc23)n[nH]1 [Compound I-5, (6-(4-fluoro-1H-pyrazol-1-yl)pyridin-3-yl)(3-(4-((5-methyl-1H-pyrazol-3-yl)amino)quinazoline-2-yl)-3,8-diazabicyclo[3.2.1]octane-8-yl)methanone]",6.2 nM,149 nM
"Cc1cc(Nc2cc(C)[nH]n2)nc(N2CC3COCC(C2)N3C(=O)c2ccc(-n3cc(F)cn3)nc2)n1 [Compound I-7, (6-(4-fluoro-1H-pyrazol-1-yl)pyridin-3-yl)(7-(4-methyl-6-((5-methyl-1H-pyrazol-3-yl)amino)pyrimidin-2-yl)-3-oxa-7,9-diazabicyclo [3.3.1]nonane-9-yl)methanone]",10.3 nM,391 nM
Cc1cc(Nc2cc(C)[nH]n2)nc(N2C3CCC2CN(C(=O)c2ccc(-n4cc(C#N)cn4)nc2)C3)n1 [Compound I-9],8.6 nM,304 nM
"Cc1cc(Nc2cc(C)[nH]n2)nc(N2CC3CCC(C2)N3C(=O)c2ccc(N3CC4C(C3)C4(C)C)nc2)n1 (centres unmarked) [Compound I-10, (6-(6,6-dimethyl-3-azabicyclo [3.1.0]hexane-3-yl)pyridin-3-yl)(3-(4-methyl-6-((5-methyl-1H-pyrazol-3-yl)amino)pyrimidin-2-yl)-3,8-diazabicyclo[3.2.1]octane-8-yl)methanone]",7.3 nM,1550 nM
"COC(=O)c1cc(Nc2cc(C)[nH]n2)nc(N2CC3CCC(C2)N3C(=O)c2ccc(-n3cc(F)cn3)nc2)n1 [Compound I-11, Methyl 2-(8-(6-(4-fluoro-1H-pyrazol-1-yl)nicotinoyl)-3,8-diazabicyclo[3.2.1]octane-3-yl)-6-((5-methyl-1H-pyrazol-3-yl)amino)pyrimidin-4-carboxylate]",24.7 nM,1020 nM
"Cc1cc(Nc2cc(C)[nH]n2)nc(N2CCN(C(=O)c3ccc(-n4cc(F)cn4)nc3)C3(CC3)C2)n1 [Compound I-12, (6-(4-fluoro-1H-pyrazol-1-yl)pyridin-3-yl)(7-(4-methyl-6-((5-methyl-1H-pyrazol-3-yl)amino)pyrimidin-2-yl)-4,7-diazaspiro[2.5]octane-4-yl)methanone]",0.6 nM,180 nM
"Cc1cc(Nc2cc(C)[nH]n2)nc(N2CC3CCC(C2)N3C(=O)c2ccc(-n3cc(F)cn3)nn2)n1 [Compound I-13, (6-(4-fluoro-1H-pyrazol-1-yl)pyridazin-3-yl)(3-(4-methyl-6-((5-methyl-1H-pyrazol-3-yl)amino)pyrimidin-2-yl)-3,8-diazabicyclo[3.2.1]octane-8-yl)methanone]",1.5 nM,78 nM
"Cc1cc(Nc2cc(C(F)(F)F)nc(N3CC4CCC(C3)N4C(=O)c3ccc(-n4cc(F)cn4)nn3)n2)n[nH]1 [Compound I-16, (6-(4-fluoro-1H-pyrazol-1-yl)pyridazin-3-yl)(3-(4-((5-methyl-1H-pyrazol-3-yl)amino)-6-(trifluoromethyl)pyrimidin-2-yl)-3,8-diazabicyclo[3.2.1]octane-8-yl)methanone]",8 nM,738 nM
"Cc1cc(Nc2cc(C(=O)O)nc(N3CC4CCC(C3)N4C(=O)c3ccc(-n4cc(F)cn4)nc3)n2)n[nH]1 [Compound I-19, 2-(8-(6-(4-fluoro-1H-pyrazol-1-yl)nicotinoyl)-3,8-diazabicyclo[3.2.1]octane-3-yl)-6-((5-methyl-1H-pyrazol-3-yl)amino)pyrimidin-4-formic acid]",25.6 nM,2760 nM
"Cc1cc(Nc2cc(CO)nc(N3CC4CCC(C3)N4C(=O)c3ccc(-n4cc(F)cn4)nc3)n2)n[nH]1 [Compound I-20, (6-(4-fluoro-1H-pyrazol-1-yl)pyridin-3-yl)(3-(4-(hydroxymethyl)-6-((5-methyl-1H-pyrazol-3-yl)amino)pyrimidin-2-yl)-3,8-diazabicyclo[3.2.1]octane-8-yl)methanone]",3 nM,1550 nM
"Cc1cc(Nc2cc(C)[nH]n2)nc(N2CC3CCC(C2)N3C(=O)c2ccc(-c3cnn(C)c3)nn2)n1 [Compound I-22, (6-(1-methyl-1H-pyrazol-4-yl)pyridazin-3-yl)(3-(4-methyl-6-((5-methyl-1H-pyrazol-3-yl)amino)pyrimidin-2-yl)-3,8-diazabicyclo[3.2.1]octane-8-yl)methanone]",2 nM,221 nM
"Cc1cc(Nc2cc(C)[nH]n2)nc(N2CC3CCC(C2)N3C(=O)c2ccc(-c3cnn(C)c3)nc2)n1 [Compound I-24, (6-(1-methyl-1H-pyrazol-4-yl)pyridin-3-yl)(3-(4-methyl-6-((5-methyl-1H-pyrazol-3-yl)amino)pyrimidin-2-yl)-3,8-diazabiciyclo [3.2.1]octane-8-yl) methanone]",8.1 nM,374 nM
"Cc1cc(Nc2cc(C)[nH]n2)nc(N2CC3CCC(C2)N3C(=O)c2ccc(-c3ccc(F)cc3)nc2)n1 [Compound I-25, (6-(4-fluorophenyl)pyridin-3-yl)(3-(4-methyl-6-((5-methyl-1H-pyrazol-3-yl)amino)pyrimidin-2-yl)-3,8-diazabicyclo[3.2.1]octane 8-yl)methanone]",5.6 nM,260 nM
"Cc1cc(Nc2cc(C)[nH]n2)nc(N2CC3CCC(C2)N3C(=O)c2ccc(-c3ccncc3)nc2)n1 [Compound I-28, [2,4′-bipyridin]-5-yl(3-(4-methyl-6-((5-methyl-1H-pyrazol-3-yl)amino)pyrimidin-2-yl)-3,8-diazabicyclo [3.2.1]octane-8-yl)methanone]",2.6 nM,467 nM
"Cc1cc(Nc2cc(C)[nH]n2)nc(N2C3CCC2CN(C(=O)c2ccc(-n4cc(F)cn4)nn2)C3)c1 [Compound I-30, (6-(4-fluoro-1H-pyrazol-1-yl)pyridazin-3-yl)(8-(4-methyl-6-((5-methyl-1H-pyrazol-3-yl)amino)pyridin-2-yl)-3,8-diazabicyclo[3.2.1]octane-3-yl)methanone]",1.8 nM,95 nM
